Patent US10167300B2, “Metalloenzyme inhibitor compounds as fungicides” (priority 2014, dated 2019)
Like-named read-outs stand apart in the source and are kept apart here.

Key:
Assay type in all cases: in vivo, Mycosphaerella graminicola on wheat plants (variety Yuma)
[1] = Type B (low volume, EC formulation, track sprayer 200 L/ha) assay, leaf blotch of wheat, SEPTTR field isolate (FI SEPTTR); details: Zymoseptoria tritici, 72 h, 100 g/ha
Outline: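 Wheat seedlings (Yuma, first leaf emerged) sprayed with acetone/Triton X-100 solutions (Type A) or 10% EC diluted in 0.1% Trycol at 200 L/ha (Type B), inoculated before or after spraying. Inoculated plants held 3 days at 20 °C, 100% RH, then greenhouse; % disease control from severity versus untreated plants.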

[2] = test system: Mycosphaerella graminicola; Anamorph: Septoria tritici; Bayer Code SEPTTR (standard laboratory isolate, SI SEPTTR); assay: Type A (high volume) assay, leaf blotch of wheat, standard laboratory SEPTTR isolate (SI SEPTTR); details: Zymoseptoria tritici, standard laboratory isolate, high volume, 50 ppm, wheat (Yuma)
Method: (§1) Example A: Evaluation of Fungicidal Activity: Leaf Blotch of Wheat (Mycosphaerella graminicola; Anamorph: Septoria tritici; Bayer Code SEPTTR)
(§2) For Type A assays, technical grades of the experimental fungicides in Table 4 below were dissolved in acetone, and then mixed with nine volumes of water containing 110 ppm Triton X-100. The fungicide solutions were applied onto wheat seedlings using an automated booth sprayer. For Type B assays, emulsifiable concentrate (EC) formulations of technical grades of the experimental fungicides in Table 4 below were prepared at 10% (w/v), and then mixed with 150 volumes of 0.1% Trycol 5941. These solutions were applied onto wheat seedlings using an automated track sprayer at 200 L/ha. All sprayed plants were allowed to air dry prior to further handling.
(§3) Wheat plants (variety Yuma) were grown from seed in a greenhouse in 50% mineral soil/50% soil-less Metro mix until the first leaf was fully emerged, with 7-10 seedlings per pot. Prior to or after application of experimental fungicides, plants were inoculated either with spores of a standard laboratory SEPTTR isolate (SI SEPTTR) or with spores from a SEPTTR field isolate collected from Wellsbourne, England in 2012 (FI SEPTTR). After inoculation the plants were kept for 3 days at 20° C. in 100% relative humidity (one day in a dark dew chamber followed by two days in a lighted dew chamber). Plants were then transferred to a 20° C. greenhouse for disease development. When disease symptoms were fully expressed on untreated plants, infection levels on treated plants were assessed on a scale of 0 to 100 percent disease severity. Percent disease control was calculated using the ratio of disease severity on treated plants relative to untreated plants.

[3] = test system: Mycosphaerella graminicola; Anamorph: Septoria tritici; Bayer Code SEPTTR (standard laboratory isolate, SI SEPTTR); assay: Type B (low volume, EC formulation, track sprayer 200 L/ha) assay, leaf blotch of wheat, standard laboratory SEPTTR isolate (SI SEPTTR); details: Zymoseptoria tritici, 72 h, 100 g/ha
Method: as §1, §2, §3

[4] = field isolate, low volume EC, 3 Day Curative, wheat (Yuma), read-out: Disease Control, FI SEPTTR Type B Assay (100 g/ha) 3 DC
[5] = field isolate, low volume EC, 3 Day Protectant, wheat (Yuma), read-out: Disease Control, FI SEPTTR Type B Assay (100 g/ha) 3 DP
[6] = 24 h, 1 Day Protectant, read-out: Disease Control, SI SEPTTR Type A Assay (50 ppm) 1 DP
[7] = 72 h, 3 Day Curative, read-out: Disease Control, SI SEPTTR Type A Assay (50 ppm) 3 DC
[8] = standard laboratory isolate, low volume EC, 3 Day Curative, wheat (Yuma), read-out: Disease Control, SI SEPTTR Type B Assay (100 g/ha) 3 DC
[9] = standard laboratory isolate, low volume EC, 3 Day Protectant, wheat (Yuma), read-out: Disease Control, SI SEPTTR Type B Assay (100 g/ha) 3 DP

| SMILES | pest or weed control at 100 g/ha [1, 4] [%] | pest or weed control at 100 g/ha [1, 5] [%] | pest or weed control at 50 ppm [2, 6] [%] | pest or weed control at 50 ppm [2, 7] [%] | pest or weed control at 100 g/ha [3, 8] [%] | pest or weed control at 100 g/ha [3, 9] [%] | pest or weed control at 100 g/ha ([1]; SEPTTR field isolate, low volume Type B assay, 3 Day Curative, wheat leaf blotch, read-out: Disease Control, FI SEPTTR Type B Assay (100 g/ha) 3 DC) [%] | pest or weed control at 100 g/ha ([1]; SEPTTR field isolate, low volume Type B assay, 3 Day Protectant, wheat leaf blotch, read-out: Disease Control, FI SEPTTR Type B Assay (100 g/ha) 3 DP) [%] | pest or weed control at 100 g/ha ([3]; SEPTTR standard laboratory isolate, low volume Type B assay, 3 Day Curative, wheat leaf blotch, read-out: Disease Control, SI SEPTTR Type B Assay (100 g/ha) 3 DC) [%] | pest or weed control at 100 g/ha ([3]; SEPTTR standard laboratory isolate, low volume Type B assay, 3 Day Protectant, wheat leaf blotch, read-out: Disease Control, SI SEPTTR Type B Assay (100 g/ha) 3 DP) [%] |
| --- | --- | --- | --- | --- | --- | --- | --- | --- | --- | --- |
| OC(c1cncnc1)(c1ccc(-c2ccc(OC(F)F)cc2)cn1)C1CC1 (stereo not shown) [Compound 60] | < 40 | 60 to 79 | 80 to 100 | 80 to 100 | 80 to 100 | 80 to 100 |  |  |  |  |
| OC(c1cncnc1)(c1ccc(Oc2ccc(Cl)cn2)cn1)C1CC1 (stereo not shown) [Compound 14] | 40 to 59 | 60 to 79 | 80 to 100 | 80 to 100 | 60 to 79 | 60 to 79 |  |  |  |  |
| CC(C)(C)C(O)(c1ccc(-c2ccc(OC(F)F)cc2)cn1)c1cncs1 (stereo not shown) [Compound 86] | 80 to 100 | 80 to 100 | 60 to 79 |  | 80 to 100 | 80 to 100 |  |  |  |  |
| COc1ccc(-c2ccc(C(O)(c3cncnc3)C(C)(C)C)nc2)c(OC(F)(F)F)c1 (stereo not shown) [Compound 163] | 80 to 100 | 80 to 100 | 80 to 100 |  |  |  |  |  |  |  |
| OC(Cc1ccc(Cl)cc1F)(c1cncnc1)c1ccc(Oc2ccc(Cl)cc2)cn1 (stereo not shown) [Compound 41, 2-(4-chloro-2-fluorophenyl)-1-(5-(4-chlorophenoxy)-pyridin-2-yl)-1-(pyrimidin-5-yl)ethanol] | < 40 | 60 to 79 | 80 to 100 | 80 to 100 | 80 to 100 | 80 to 100 |  |  |  |  |
| OC(c1cncnc1)(c1ccc(-c2ccc(OC(F)(F)F)cc2)cn1)C1CC1 (stereo not shown) [Compound 73] | 60 to 79 | 60 to 79 | 80 to 100 |  | 80 to 100 | 80 to 100 |  |  |  |  |
| Cc1ccc(C(O)(c2ccc(-c3ccc(OC(F)(F)F)cc3)cn2)C(C)(C)C)cn1 (stereo not shown) [Compound 148] | 60 to 79 | < 40 |  |  | 60 to 79 | < 40 |  |  |  |  |
| OC(c1cccnc1)(c1ccc(-c2ccc(OC(F)(F)F)cc2)cn1)c1ccc(F)cc1F (stereo not shown) [Compound 91] | 40 to 59 | 80 to 100 | 80 to 100 |  | 60 to 79 | 80 to 100 |  |  |  |  |
| COc1ccc(-c2ccc(C(O)(c3cncnc3)C(C)(C)C)nc2)cc1 (stereo not shown) [Compound 95] | 80 to 100 | 80 to 100 | 80 to 100 |  | 80 to 100 | 80 to 100 |  |  |  |  |
| OC(c1ccc(-c2ccc(OC(F)(F)F)cc2)cn1)(c1cncs1)C1CC1 (stereo not shown) [Compound 89] | 40 to 59 | 60 to 79 | 80 to 100 |  | 80 to 100 | 80 to 100 |  |  |  |  |
| CC(C)(C)C(O)(Cc1cncnc1)c1ccc(-c2ccc(Cl)cc2)cn1 (stereo not shown) [Compound 51] | 60 to 79 | 60 to 79 | 80 to 100 | 80 to 100 | 40 to 59 | 60 to 79 |  |  |  |  |
| Cc1cc(OC(F)(F)F)ccc1-c1ccc(C(O)(c2cccnc2)C(C)(C)C)nc1 (stereo not shown) [Compound 146] | 80 to 100 | 60 to 79 | 80 to 100 |  | 80 to 100 | 80 to 100 |  |  |  |  |
| COC(c1cncnc1)(c1ccc(-c2ccc(OC(F)(F)F)cc2)cn1)C(C)(C)C (stereo not shown) [Compound 277, 5-(1-methoxy-2,2-dimethyl-1-(5-(4-(trifluoromethoxy)phenyl)pyridin-2-yl)propyl)pyrimidine] |  |  |  |  |  |  | 80 to 100 | 80 to 100 | 80 to 100 | 80 to 100 |
| Cc1ncncc1C(O)(c1ccc(-c2ccc(OC(F)(F)F)cc2)cn1)C(C)(C)C (stereo not shown) [Compound 118] | 80 to 100 | 80 to 100 | 80 to 100 |  | 80 to 100 | 80 to 100 |  |  |  |  |
| CC(C)(C)C(O)(c1cncnc1)c1ccc(-c2ccc(OC(F)(F)F)cc2F)cn1 (stereo not shown) [Compound 124, 1-(5-(2-fluoro-4-(trifluoromethoxy)phenyl)pyridin-2-yl)-2,2-dimethyl-1-(pyrimidin-5-yl)propan-1-ol] | 80 to 100 | 80 to 100 | 80 to 100 |  | 80 to 100 | 80 to 100 |  |  |  |  |
| CC(C)(C)c1ccc(-c2ccc(C(O)(c3cccnc3)C(C)(C)C)nc2)cc1 (stereo not shown) [Compound 143] | 80 to 100 | 80 to 100 | 80 to 100 |  | 80 to 100 | 60 to 79 |  |  |  |  |
| CC(C)(C)C(O)(c1cncnc1)c1ccc(-c2ccc(OCC(F)(F)F)cc2)cn1 (stereo not shown) [Compound 120] | 80 to 100 | 60 to 79 | 80 to 100 |  | 80 to 100 | 80 to 100 |  |  |  |  |
| COc1ccc(-c2ccc(C(O)(c3cncnc3)C(C)(C)C)nc2)c(F)c1 (stereo not shown) [Compound 162] | 80 to 100 | 80 to 100 | 80 to 100 |  |  |  |  |  |  |  |
| CC(O)(c1cncnc1)c1ccc(-c2ccc(OC(F)(F)F)cc2)cn1 (stereo not shown) [Compound 99] | < 40 | 40 to 59 | 80 to 100 |  |  |  |  |  |  |  |
| CC(C)(C)C(O)(c1cncnc1)c1ccc(-c2ccc(OC(F)(F)C(F)(F)F)cc2)cn1 (stereo not shown) [Compound 161] | 80 to 100 | 80 to 100 | 80 to 100 |  |  |  |  |  |  |  |
| CC(C)(C)C(O)(c1cncnc1)c1ccc(-c2ccc(OC(F)(F)F)cn2)cn1 (stereo not shown) [Compound 150] | 80 to 100 | 80 to 100 | 80 to 100 |  |  |  |  |  |  |  |
| Cc1ccncc1C(O)(c1ccc(-c2ccc(OC(F)(F)F)cc2)cn1)C(C)(C)C (stereo not shown) [Compound 149] | 80 to 100 | 60 to 79 |  |  | 80 to 100 | 60 to 79 |  |  |  |  |
| CC(F)(F)c1ccc(-c2ccc(C(O)(c3cncnc3)C(C)(C)C)nc2)cc1 (stereo not shown) [Compound 155] | 60 to 79 | 60 to 79 | 80 to 100 |  |  |  |  |  |  |  |
| CC(C)(C)C(O)(c1cncnc1)c1ccc(-c2ccc(C3(C(F)(F)F)CC3)cc2)cn1 (stereo not shown) [Compound 160] | 80 to 100 | 80 to 100 | 80 to 100 |  |  |  |  |  |  |  |
| Cc1ncccc1C(O)(c1ccc(-c2ccc(OC(F)(F)F)cc2)cn1)C(C)(C)C (stereo not shown) [Compound 151] |  |  | 80 to 100 |  | 80 to 100 | 80 to 100 |  |  |  |  |
| OC(c1cncnc1)(c1ccc(Oc2ccc(OC(F)(F)F)cc2)cn1)C1CC1 (stereo not shown) [Compound 8] |  |  | 80 to 100 | 80 to 100 |  |  |  |  |  |  |
